Measured values published in patent publication US7888285B2, “2,4,6-phenyl substituted cyclic ketoenols” (Bayer CropScience AG, priority 2003, dated 2011).

Tests used:
Assay type in all cases: in vivo
Meloidogyne incognita = assay: Meloidogyne test; settings: 20 ppm, with reference to gall formation
Method: (§1) To prepare a suitable active compound preparation, 1 part by weight of active compound is mixed with the stated amounts of solvent and emulsifier and the concentrate is diluted with water to the desired concentration.
Containers are filled with sand, active compound solution, Meloidogyne incognita egg/larval suspension and lettuce seeds. The lettuce seeds germinate and the plantlets develop. The galls develop on the roots.
After the desired time, the nematicidal efficacy is determined I n % with reference to gall formation. 100% means that no galls were found; 0% means that the number of galls on the treated plants corresponds to that of the untreated control.

Setaria [1] = assay: Post-emergence test; settings: greenhouse, 250 g a.i./ha, scored after three weeks
Method: (§2) To prepare a suitable active compound preparation, 1 part by weight of active compound is mixed with the stated amount of solvent, the stated amount of emulsifier is added, and the concentrate is diluted with water to the desired concentration.
(§3) Test plants with a height of 5-15 cm are sprayed with the active compound preparation in such a way that the amounts of active compound desired in each case are applied per unit area. The concentration of the spray mixture is chosen in such a way that the amounts of active compound desired in each case are applied in 1 000 1 of water/ha.
(§4) After three weeks, the degree of damage of the plants is scored in % damage in comparison with the development of the untreated control.
(§5) The figures denote: • 0% =no effect (like untreated control) • 100% =total destruction

Echinochloa [2] = assay: Post-emergence test; settings: greenhouse, 250 g a.i./ha, scored after three weeks
Method: as §2, §3, §4, §5

Alopecurus [3] = assay: Post-emergence test; settings: greenhouse, 250 g a.i./ha, scored after three weeks
Method: as §2, §3, §4, §5

Avena fatua [4] = assay: Post-emergence test; settings: greenhouse, 250 g a.i./ha, scored after three weeks
Method: as §2, §3, §4, §5

sugar beet [5] = assay: Post-emergence test; settings: greenhouse, 250 g a.i./ha, scored after three weeks
Method: as §2, §3, §4, §5

[6] = tested on: larvae of the mustard beetle (Phaedon cochleariae); assay: Phaedon larvae test; settings: 1000 ppm
Method: [table] To produce a suitable preparation of active compound, 1 part by weight of active compound is mixed with the stated amounts of solvent and emulsifier, and the concentrate is diluted with emulsifier-containing water to the desired concentration. Cabbage leaves (Brassica oleracea) are treated by being dipped into the preparation of active compound of the desired concentration and are infested with the larvae of the mustard beetle (Phaedon cochleariae) while the leaves are still moist.

Setaria [7] = assay: Pre-emergence test; settings: greenhouse, scored after three weeks
Method: (§6) [table] To prepare a suitable active compound preparation, 1 part by weight of active compound is mixed with the stated amount of solvent, the stated amount of emulsifier is added, and the concentrate is diluted with water to the desired concentration. Seeds of the test plant are sown in normal soil. After approximately 24 hours, the soil is sprayed with the active compound preparation in such a way that the amounts of active compound desired in each case are applied per unit area. The concentration of the spray mixture is chosen in such a way that the amounts of active compound desired in each case are applied in 1 000 1 of water/ha. After three weeks, the degree of damage of the plants is scored in % damage in comparison with the development of the untreated control.

Echinochloa [8] = assay: Pre-emergence test; settings: greenhouse, 250 g a.i./ha, scored after three weeks
Method: as §6

Sinapis [9] = assay: Pre-emergence test; settings: greenhouse, 250 g a.i./ha, scored after three weeks
Method: as §6

Alopecurus [10] = assay: Pre-emergence test; settings: greenhouse, scored after three weeks
Method: as §6

Avena fatua [11] = assay: Pre-emergence test; settings: greenhouse, 250 g a.i./ha, scored after three weeks
Method: as §6

Abultilon [12] = assay: Post-emergence test; settings: greenhouse, 250 g a.i./ha, scored after three weeks
Method: as §2, §3, §4, §5

Sinapis [13] = assay: Post-emergence test; settings: greenhouse, 250 g a.i./ha, scored after three weeks
Method: as §2, §3, §4, §5

[14] = tested on: green peach aphid (Myzus persicae); assay: Myzus test; settings: 1000 ppm
Method: To prepare a suitable active compound preparation, 1 part by weight of active compound is mixed with the stated amounts of solvent and emulsifier and the concentrate is diluted with emulsifier-containing water to the desired concentration.
Cabbage leaves (Brassica oleracea), which are severely infested with the green peach aphid (Myzus persicae) are treated by immersing them into the active compound preparation of the desired concentration.
After the desired time, the destruction rate is determined in %. 100% means that all of the aphids have been destroyed; 0% means that none of the aphids have been destroyed.

[15] = tested on: greenhouse red spider mite (Tetranychus urticae); assay: Tetranychus test (OP-resistant/immersion treatment)
Method: (§7) To produce a suitable preparation of active compound, 1 part by weight of active compound is mixed with the stated amounts of solvent and emulsifier, and the concentrate is diluted with emulsifier-containing water to the desired concentration.
Bean plants (Phaseolus vulgaris) which are severely infested with all stages of the greenhouse red spider mite (Tetranychus urticae) are dipped into a preparation of the active compound of the desired concentration.
After the desired time, the activity in % is determined. 100% means that all the spider mites have been killed; 0% means that none of the spider mites have been killed.

Abultilon [16] = assay: Pre-emergence test; settings: greenhouse, 250 g a.i./ha, scored after three weeks
Method: as §6

[17] = tested on: caterpillars of the diamond-back moth (Plutella xylostella); assay: Plutella test; settings: 1000 ppm
Method: as §7
Cabbage leaves (Brassica oleracea) are treated by being dipped into the preparation of active compound of the desired concentration and are infested with caterpillars of the diamond-back moth (Plutella xylostella) while the leaves are still moist.
(§8) After the desired time, the destruction in % is determined. 100% means that all the caterpillars have been killed; 0% means that none of the caterpillars have been killed.

[18] = tested on: green rice leafhopper (Nephotettix cincticeps); assay: Nephotettix test; settings: 1000 ppm
Method: To produce a suitable preparation of active compound, 1 part
by weight of active compound is mixed with the stated amounts of solvent and emulsifier, and the concentrate is diluted with emulsifier-containing water to the desired concentration.
Rice seedlings (Oryza sativa) are treated by being dipped into the preparation of active compound of the desired concentration and are infested with the green rice leafhopper (Nephotettix cincticeps) while the leaves are still moist.
After the desired time, the destruction in % is determined. 100% means that all the leafhoppers have been killed; 0% means that none of the leafhoppers have been killed.

Amaranthus = assay: Post-emergence test; settings: greenhouse, 250 g a.i./ha, scored after three weeks
Method: as §2, §3, §4, §5

sugar beet [19] = assay: Pre-emergence test; settings: greenhouse, scored after three weeks
Method: as §6

[20] = tested on: black bean aphids (Aphis fabae); assay: Aphis test, contact action; settings: 1000 ppm
Method: as §1
Shoots of young field bean plants (Vicia faba) which are severely infested with black bean aphids (Aphis fabae) are treated by being dipped into the active compound preparation of the desired concentration.
After the desired period of time, the destruction is determined in %. 100% means that all of the aphids have been destroyed; 0% means that no aphids have been destroyed.

Matricaria = assay: Pre-emergence test; settings: greenhouse, 125 g a.i./ha, scored after three weeks
Method: as §6

Lolium = assay: Pre-emergence test; settings: greenhouse, 125 g a.i./ha, scored after three weeks
Method: as §6

Cassia = assay: Pre-emergence test; settings: greenhouse, 125 g a.i./ha, scored after three weeks
Method: as §6

Viola = assay: Pre-emergence test; settings: greenhouse, 125 g a.i./ha, scored after three weeks
Method: as §6

[21] = tested on: caterpillars of the armyworm (Spodoptera frugiperd); assay: Spodoptera frugiperda test; settings: 1000 ppm
Method: as §7
Cabbage leaves (Brassica oleracea) are treated by being dipped into the preparation of active compound of the desired concentration and are infested with caterpillars of the armyworm (Spodoptera frugiperd) while the leaves are still moist.
as §8

CCc1cc(Cl)cc(OC)c1C1=C(O)C2(CCC(C)CC2)NC1=O (single isomer, unassigned) [Example I-1-a-4]
90%: degree of damage, Sinapis (Sinapis [9]) | degree of damage, Alopecurus (Alopecurus [10]; 250 g a.i./ha)
98%: Destruction in % after 14 d (Meloidogyne incognita)
100%: degree of damage, Setaria (Setaria [1]) | degree of damage, Echinochloa (Echinochloa [2]) | degree of damage, Alopecurus (Alopecurus [3]) | degree of damage, Avena fatua (Avena fatua [4]) | Destruction in % after 7 d [6] | degree of damage, Setaria (Setaria [7]; 250 g a.i./ha) | degree of damage, Echinochloa (Echinochloa [8]) | degree of damage, Avena fatua (Avena fatua [11])
0%: degree of damage, sugar beet (sugar beet [5])

CCc1cc(Cl)cc(OC)c1C1=C(O)C2(CCC(OC)CC2)NC1=O (single isomer, unassigned) [Example I-1-a-3]
70%: degree of damage, Abultilon (Abultilon [12])
98%: Destruction in % after 14 d (Meloidogyne incognita)
0%: degree of damage, sugar beet (sugar beet [5])
100%: degree of damage, Setaria (Setaria [1]) | degree of damage, Echinochloa (Echinochloa [2]) | degree of damage, Alopecurus (Alopecurus [3]) | degree of damage, Avena fatua (Avena fatua [4]) | degree of damage, Setaria (Setaria [7]; 250 g a.i./ha) | degree of damage, Echinochloa (Echinochloa [8]) | degree of damage, Avena fatua (Avena fatua [11])
90%: Destruction in % after 6 d [14]
80%: degree of damage, Sinapis (Sinapis [13]) | Destruction in % after 7 d [6] | Destruction in % after 7 d ([15]; 100 ppm) | degree of damage, Abultilon (Abultilon [16]) | degree of damage, Sinapis (Sinapis [9]) | degree of damage, Alopecurus (Alopecurus [10]; 250 g a.i./ha)

COc1cc(Cl)cc(C)c1C1=C(O)C2(CCOCC2)NC1=O [Example I-1-a-2]
80%: degree of damage, Setaria (Setaria [7]; 250 g a.i./ha) | degree of damage, Avena fatua (Avena fatua [11])
0%: degree of damage, sugar beet (sugar beet [5]) | degree of damage, sugar beet (sugar beet [19]; 250 g a.i./ha)
90%: degree of damage, Amaranthus (Amaranthus)
100%: Destruction in % after 7 d [17] | Destruction in % after 6 d [18] | degree of damage, Setaria (Setaria [1]) | degree of damage, Avena fatua (Avena fatua [4]) | Destruction in % after 7 d [6] | Destruction in % after 6 d [14] | degree of damage, Alopecurus (Alopecurus [10]; 250 g a.i./ha)
95%: Destruction in % after 7 d ([15]; 1000 ppm)

COc1cc(Cl)cc(C)c1C1=C(O)C2(CCC(C)CC2)NC1=O (stereo not drawn) [Example I-1-a-1]
90%: degree of damage, Matricaria (Matricaria) | degree of damage, Viola (Viola)
100%: Destruction in % after 7 d [17] | Destruction in % after 6 d [20] | Destruction in % after 6 d [18] | degree of damage, Setaria (Setaria [1]) | degree of damage, Alopecurus (Alopecurus [3]) | degree of damage, Avena fatua (Avena fatua [4]) | Destruction in % after 7 d [6] | Destruction in % after 7 d ([15]; 1000 ppm) | degree of damage, Setaria (Setaria [7]; 125 g a.i./ha) | degree of damage, Lolium (Lolium) | degree of damage, Cassia (Cassia) | degree of damage, Alopecurus (Alopecurus [10]; 125 g a.i./ha) | Destruction in % after 7 d [21]
0%: degree of damage, sugar beet (sugar beet [5]) | degree of damage, sugar beet (sugar beet [19]; 125 g a.i./ha)
95%: Destruction in % after 6 d [14]
